The target of data set [1] is T1, human pcCMT (Homo sapiens, UniProt O60725).
T1 construct: The 3.6-kb full-length HL60 pcCMT cDNA and an 852-bp cDNA fragment comprising the ORF were subcloned into the eukaryotic expression vectors; expressed in transfected cells; host or cells: COS-1 cells (pCDM8 vector, DEAE-dextran transfection); light membranes after nitrogen cavitation
In words: Carboxyl methylation of prenylcysteine analogs (AFC, AGGC) as defined substrates by the recombinant enzyme in COS-1 membranes. The data set is classed as biochemical. As for the experimental part: (§1) Prenylcysteine Carboxyl Methyltransferase Assays: COS-1 cells transfected with HL60 pcCMT or vector alone were harvested at 48 hours with 5 mM EDTA and subjected, in parallel with human neutrophils, to nitrogen cavitation and discontinuous sucrose density centrifugation as described (Philips et al, 1991). Light membranes were assayed for pcCMT activity qualitatively by S-adenosyl-L- [methyl-^3H]methionine labeling (SDS-polyacrylamide gel electrophoresis and flurography) of Rho GTPases partially purified from neutrophil cytosol and quantitatively by carboxyl methylation of N-acetyl-S-trans,trans-farnesyl-L-cysteine (AFC) (heptane partition, alkaline hydrolysis, and measurement of vapor phase [^3H]methanol) as described (Philips et al, 1995)
(§2) To determine whether the HL60 STE14 protein homolog has prenylcysteine carboxyl methyltransferase activity, the cDNA was subcloned into a mammalian expression vector PCDM8 (Invitrogen, San Diego, Calif.) and transiently overexpressed ectopically in COS-1 cells. Membranes prepared from these cells were used as a source of recombinant enzyme. Farnesylated Ras GTPases require detergent for extraction from membranes. Therefore, geranylgeranylated neutrophil cytosolic Rho accessory protein, guanine nucleotide dissociation inhibitor (GDI), were utilized as endogenous substrates in an in vitro assay (FIGS. 5A and 5B). Untransfected COS-1 cell membranes had little pcCMT activity toward Rho proteins compared with that of membranes derived from human neutrophils (FIG. 5A). Transfection with the HL60 cDNA conferred pcCMT activity toward Rho GTPases on COS-1 membranes, and this activity was blocked by the competitive pcCMT inhibitor, AFC, with an ED50 (10 μM) identical to that for endogenous neutrophil pcCMT. Carboxyl methylation of Rac2 and RhoA by HL60 pcCMT-transfected COS-1 cell membranes was enhanced by guanosine 5′-3-O-(thio)triphosphate (GTPγS) (FIG. 5B), similar to the activity observed in neutrophil membranes (Philips et al, 1993). Carboxyl methyltransferase activity was quantitated in membranes of COS-1 cells transfected with HL60 pcCMT using prenylcysteine analogs as defined substrates (Philips et al, 1995). Untransfected COS-1 cell membranes had […] (n=5) of the pcCMT specific activity of neutrophil membranes toward AFC.
The Michaelis constants of the recombinant enzyme, Km=7 μM for AFC and 0.6 μM for AGGC, were similar to those for the endogenous neutrophil enzyme (Pillinger et al, 1994). Thus, the cDNA described above encodes authentic human myeloid pcCMT.

For data set [2], the target named is T1, human pcCMT. Put plainly: Carboxyl methylation of Rho GTPases by COS-1 cell membranes expressing human pcCMT (S-adenosyl-L-[methyl-3H]methionine labeling, SDS-PAGE, fluorography). Format: biochemical. As to conditions: HL60 pcCMT-transfected COS-1 cell membranes; 10 μM. As for the experimental part: FIGS. 5A and 5B show the carboxyl methylation of ras-related GTPases by COS-1 cell membranes expressing ectopic human pcCMT. In FIG. 5A, neutrophil cytosol (CS) containing a mixture of Rho family proteins complexed with Rho-GDI (lanes 2, 3, 6, 7, 10, 11) or RhoA-GDI complexes partially purified from CS (lanes 4, 8, 12) were incubated with the methyl donor S-adenosyl-L-[methyl-^3H]methionine and light membranes derived from nitrogen cavitation of human neutrophils (lanes 1-4) or COS-1 cells transiently transfected with either human pcCMT (lanes 5-8) or vector alone (lanes 9-12). In some reactions (lanes 3, 7, 11) a competitive pcCMT inhibitor, AFC, was included. Reaction products were analyzed by SDS-PAGE and fluorography. The position of carboxyl methylated […] is indicated as is the position of protein phosphatase 2a (PP2a) that is methylated on a C-terminal leucine by an enzyme unrelated to pcCMT (Lee et al, 1993). […] Carboxyl methyltransferase activity was quantitated in membranes of COS-1 cells transfected with HL60 pcCMT using prenylcysteine analogs as defined substrates (Philips et al, 1995). […]

Data set [3] can be described thus: Prenylcysteine carboxyl methyltransferase activity of membranes, AFC as substrate. Format: biochemical, human. As to conditions: for Increase: relative to COS + Vector; for Relative enzymatic activity: COS cell membranes, Vector Alone = 1.
Description: Expression of Recombinant pcCMT: The 3.6-kb full-length HL60 pcCMT cDNA and an 852-bp cDNA fragment comprising the ORF were subcloned into the eukaryotic expression vectors pCDM8 and pcDNA3.1 (Invitrogen, Carlsbad, Calif.). Myc-tagged pcCMT was made by adding a sequence encoding the 10-amino acid epitope of c-Myc recognized by monoclonal antibody 9E10 to the C terminus of pcCMT using patch PCR and subcloning into pcDNA3.1. pcCMT tagged at the C terminus with GFP was generated by subcloning the pcCMT ORF into the expression vector pGFP-N3 (Clontech). For pcCMT enzymatic assays, COS-1 cells were grown in 10-cm dishes and transfected with pcCMT with DEAE-dextran as described (Aruffo et al, 1987). For fluorescence microscopy, exponentially growing COS-1, CHO, and NIH3T3 cells were plated the day prior to transfection at 50-60% confluence and transfected with 2 μg of DNA using LipofectAMINE (Life Technologies, Inc.), Gaithersburg, Md.) according to the manufacturer's instructions.
as §1, §2

A further data set deals with Δste14 yeast strain. Put plainly: ste14 complementation, patch mating test. The data set is classed as cell-based, S. cerevisiae. As to conditions: cDNA expressed from a plasmid. As for the experimental part: S. cerevisiae Strains, Growth, and ste14 Complementation: Complete (YEPD), synthetic (SD), and synthetic dropout media were prepared as described previously (Michaelis et al, 1988), except that dropout medium lacked cysteine. All experiments were performed at 30° C. Yeast transformations were carried out by either the lithium acetate method (Ito et al, 1983) or the Elble method (Elble, 1992). The ste14 deletion strains used are SM1188 (MATαΔste14-3:: TRP1 trp1 leu2 ura3 his4 can1) and SM1639 (MATαΔste14-4:: URA3 trp1 leu2 his4 can1) (Sapperstein et al, 1994). Plasmid expression of STE14 protein was accomplished by pSM1237 (CEN URA3 STE14). Human pcCMT was expressed in yeast by subcloning the HL60 pcCMT ORF into the BamHI SalI sites of the yeast expression plasmid pG1 (2μ TRP1) that utilizes a GPD promoter and a PGK transcription terminator and polyadenylation signal (Schena et al, 1991). The resulting construct was designated pG1-hCMT (2μ TRP1 hCMT). Patch mating tests were carried out essentially as described previously (Michaelis et al, 1988). briefly, patches of MATα cells grown on selective media were replica plated onto a lawn of the […], SM1068 (lys1), that had been spread on an SD plate. […]
To determine whether human pcCMT could substitute in vivo for the S. cerevisiae pcCMT, STE14 protein, a complementation analysis was done using mating as a biological readout. […]

T1 sequence (O60725 whole entry, the tested form may be a part): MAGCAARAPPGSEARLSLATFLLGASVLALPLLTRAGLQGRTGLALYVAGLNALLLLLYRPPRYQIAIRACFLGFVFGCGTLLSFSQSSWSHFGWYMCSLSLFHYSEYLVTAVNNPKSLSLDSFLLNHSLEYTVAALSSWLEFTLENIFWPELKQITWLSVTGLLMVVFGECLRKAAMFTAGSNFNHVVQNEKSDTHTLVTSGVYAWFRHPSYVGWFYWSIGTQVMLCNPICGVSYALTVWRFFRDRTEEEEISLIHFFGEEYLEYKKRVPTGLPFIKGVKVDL

As usually defined, the Km is the substrate concentration at which the rate is half of its maximum. Consider `CC(=O)N[C@@H](CSC/C=C(\C)CC/C=C(\C)CC/C=C(\C)CCC=C(C)C)C(=O)O` (stereo in doubt) [AGGC, N-acetyl-S-all-trans-geranylgeranyl-L-cysteine], for which the “Increase in carboxyl methylation of the substrate on pcCMT transfection” value on human pcCMT [1] (n=2) came to 18 fold. For the same compound, the Km on human pcCMT [1] (recombinant enzyme, read-out: Michaelis constant Km) stood at 0.6 µM.

Regarding `Nc1nc2c(ncn2[C@@H]2O[C@H](COP(=O)(O)OP(=O)(O)OP(O)(O)=S)[C@@H](O)[C@H]2O)c(=O)[nH]1` [GTPγS, guanosine 5′-3-O-(thio)triphosphate], the “Effect on carboxyl methylation of Rac2 and RhoA” value at human pcCMT [2] was “enhanced”.

In the case of “COS + pcCMT ORF: membranes of COS cells transfected with pCDM8 + pcCMT ORF only”, the Activity was determined as 84.6 pmol/mg/min in data set [3] (Experiment 2) and 90.7 pmol/mg/min in data set [3] (Experiment 3). The Increase in data set [3] (Experiment 2) is given as 45 fold; in data set [3] (Experiment 3) it was 53 fold.

With “COS + pcCMT cDNA: membranes of COS cells transfected with pCDM8 + pcCMT full-length cDNA”, the Activity in data set [3] (Experiment 1) is reported as 62.7 pmol/mg/min; in data set [3] (Experiment 2) it was 17.7 pmol/mg/min; in data set [3] (Experiment 3) it was 35.3 pmol/mg/min. Besides, the Increase is on record as 12 fold in data set [3] (Experiment 1), 9 fold in data set [3] (Experiment 2) and 21 fold in data set [3] (Experiment 3).

As for “HL60 pcCMT: human prenylcysteine carboxyl methyltransferase, 284 amino acid protein of SEQ ID NO:5, ectopically expressed in COS-1 cell membranes”, in the data set on Δste14 yeast strain, the “Restoration of mating phenotype” value is recorded as “partially restored the mating phenotype”. The results for the Relative enzymatic activity in data set [3] (Experiment #1), in data set [3] (Experiment #2) and in data set [3] (Experiment #3) were 14.1, 5.4 and 19.6, respectively. Besides, the “Specific AFC carboxyl methyltransferase activity” value in data set [3] (transfected COS-1 membranes, n=5, p<0.0005) is 74.5 ± 6.8 pmol/mg/min. In addition, the “Increase in specific AFC carboxyl methyltransferase activity” value in data set [3] (transfection of COS-1 cells) is 18-53 fold.

With “PcCMT-Myc: pcCMT with the 10-amino acid c-Myc epitope added at the C terminus”, in data set [3] (Experiment #1), the Relative enzymatic activity was 11.1.

Regarding “pcCMT-FLAG: pcCMT with the 8-amino acid FLAG epitope as C-terminal extension”, the values for the Relative enzymatic activity in data set [3] (Experiment #2) and in data set [3] (Experiment #3) were 5.45 and 18.5, respectively.
